Measured values from publication PMC8962522, “Direct interaction of TrkA/CD44v3 is essential for NGF-promoted aggressiveness of breast cancer cells” (Journal of Experimental & Clinical Cancer Research : CR, 2022).

Key:
[1] = tested on: CD44v3 (CD44v3-His, whole cell extracts of COS-7 cells expressing CD44v3); test: MST binding of NGF, TrkA or FGF to CD44v3; conditions: whole cell extracts of COS-7 expressing CD44v3, NGF alone, TrkA alone or FGF control
Description: (§1) MST was conducted using an NT.115 A Pico MST instrument (Nano Temper Technologies GmbH) equipped with red and blue filter sets. The TrkA-His tagged extracellular domain protein (Ala 34-Gly423) (9966-TK-050; R&D Systems, United Kingdom), diluted to 200 nM in PBS-T buffer (supplied by the vendor), was labeled using a Monolith His-Tag Labeling Kit with RED-Tris-NTA (Nano Temper). The RED-Tris-NTA dye was diluted in PBS-T to 100 nM. The mix was incubated at RT in the dark for 30 min. Next, an extract expressing CD44v3-labeled protein (CD44v3-His) and ligand and/or TrkA was mixed at a 1:1 ratio and incubated at RT in the dark for 15 min. For the binding check, peptides and TrkA-His were used. Capillaries were filled individually and loaded into the instrument. The data were acquired using high MST power and 100% LED. The data were analyzed using MO Control Software (Nano Temper).
(§2) Fig. 1 The C-terminal region of CD44 variant 3 binds to TrkA. A Schematic representation of the CD44 gene and protein structure. Alternative splicing leads to the expression of CD44 variants, thus the insertion of exon 8 leads to the expression of a CD44 protein containing variant 3 (CD44v3) and the insertion of exon 11 leads to the expression of a CD44 containing variant 6 (CD44v6) (B) TrkA/CD44v3 complex formation in COS-7 cells expressing TrkA and CD44v3 was detected by the proximity ligation assay (PLA), which was performed 0, 5 and 30 min after the initiation of NGF (100 ng/ml) treatment. The images represent signals detected by PLA. Quantification of the red spots was performed by ImageJ software (30 randomly chosen fields per condition of three different experiments). Statistical analyses were performed using one-way ANOVA followed by Bonferroni’s posttest. Error bars represent the standard error of the mean (S.E.M.); *** p < 0.001. ns, nonsignificant. C NGF and/or TrkA binding to CD44v3 was measured by microscale thermophoresis (MST). MST experiments were performed on whole cell extracts of COS-7 cells expressing CD44v3. […]

[2] = tested on: TrkA-His tagged extracellular domain protein (Ala 34-Gly423); test: MST binding of CD44v3 mimetic peptides to TrkA; conditions: TrkA-His 200 nM labelled with RED-Tris-NTA, PBS-T
Description: as §1
Fig. 2 The C-terminal region of CD44v3 and the His112 residue of TrkA are involved in the CD44v3/TrkA interaction. TrkA/CD44v3 complex association was detected by the proximity ligation assay (PLA) in wild-type TrkA- or TrkA_H112A- and CD44v3-expressing COS-7 cells. Proximity ligation assays were performed after 0, 5 and 30 min of NGF treatment (100 ng/ml). Representative images of signals detected by PLA (A) and their quantification (B). Sequence of CD44 exon variant 3 and deletion mutant Δ3 or Δ4 (C). TrkA/CD44v3 complex association was detected by PLA in wild-type TrkA and CD44v3 wild type or CD44v3 deleted mutant Δ3 or Δ4 expressing COS-7 (D, E). Sequence of CD44v3 mimetic peptides (F) and structure (G). TrkA binding to CD44v3 mimetic peptides by microscale thermophoresis (H) and effects of CD44v3 mimetic peptides 3 (RDRHLSFSGSG) and 4 ([…]) on TrkA/CD44v3 complex formation (I, J). Quantification of PLA was performed using ImageJ software (30 fields per condition of three different experiments). Statistical analyses were performed using one-way ANOVA followed by Bonferroni’s posttest.
To block the TrkA-CD44v3 association, 4 mimetic peptides of CD44v3 were designed corresponding to zone 1 [(K) STSSNTISAG], zone 2 (WEPNEENEDE), zone 3 (RDRHLSFSGSG) and zone 4 (IDDDEDFISST) (Fig. 2F & G). The binding capacities of the CD44v3 mimetic peptides to TrkA were then measured by MST (Fig. 2H). […] To confirm mimetic peptide 4 binding, we assessed its ability to bind TrkA using nanoscale differential scanning fluorimetry (nanoDSF; Supplementary Fig. 6A & B).

[3] = tested on: TrkA/CD44v3 complex in MDA-MB-231 cells; test: PLA TrkA/CD44v3 complex formation in MDA-MB-231 cells; assay type: cell-based; conditions: NGF 100 ng/ml; 30 fields per condition, three experiments
Description: (§3) Cells (10,000 cells per well) were grown on acid-washed eight-well glass slides (Thermo Scientific) in the appropriate medium supplemented with 10% FBS for 24 h. After NGF treatment, paraformaldehyde (PAF)-fixed cells were incubated with 4% bovine serum albumin (BSA) or 5% FBS (for 1 h at 20 °C), followed by overnight incubation with primary antibodies (rabbit anti-TrkA or rabbit anti-IgG + mouse anti-pan-CD44; mouse anti-CD44v3; mouse anti-CD44v6; mouse anti-IgG2a; mouse anti-IgG2b; or mouse anti-IgG1). PLA was performed following the manufacturer’s instructions in the assay kit (Duolink PLA; Sigma–Aldrich). To obtain the correct representation of the PLA signal for each condition, 30 fields per condition were observed using a fluorescence microscope (Eclipse TiU; Nikon, Japan). The PLA signals (red dots) were automatically quantified using ImageJ software (with an in-house-developed plug-in). After PLA, statistical analyses were performed using GraphPad Prism software to determine the mean dot intensity in the cells.
Fig. 3 CD44v3 mimetic peptide 4 blocks the TrkA-CD44 association in MDA-MB-231 breast cancer cells. TrkA/CD44v3 (A) and TrkA/CD44v6 (B) complex associations were detected by the proximity ligation assay (PLA) in MDA-MB-231 breast cancer cells. Effects of a scramble peptide (SP) (C), CD44v3 mimetic peptide 3 (P3) and 4 (P4) (D) on TrkA/CD44v3 complex formation induced by NGF. Quantification of the PLA results was performed by ImageJ software (30 randomly chosen fields per condition of three different experiments). Statistical analyses were performed using one-way ANOVA followed by Bonferroni’s posttest. The error bars represent the standard error of the mean (S.E.M.); * p < 0.05, ** p < 0.01, *** p < 0.001; ns, not significant

[4] = tested on: TrkA/CD44v3 complex in COS-7 cells expressing TrkA and CD44v3; test: PLA TrkA/CD44v3 complex formation in COS-7 cells; assay type: cell-based, African green monkey (COS-7 cells); conditions: COS-7 expressing TrkA and CD44v3, NGF 100 ng/ml, 0, 5 and 30 min, 30 fields per condition, three experiments
Description: as §3, §2
Fig. 2 The C-terminal region of CD44v3 and the His112 residue of TrkA are involved in the CD44v3/TrkA interaction. TrkA/CD44v3 complex association was detected by the proximity ligation assay (PLA) in wild-type TrkA- or TrkA_H112A- and CD44v3-expressing COS-7 cells. […] Representative images of signals detected by PLA (A) and their quantification (B). […] TrkA/CD44v3 complex association was detected by PLA in wild-type TrkA and CD44v3 wild type or CD44v3 deleted mutant Δ3 or Δ4 expressing COS-7 (D, E). […] Quantification of PLA was performed using ImageJ software (30 fields per condition of three different experiments). […]

| Substance | binding to CD44v3 (in words) [1] | binding to TrkA by MST (in words) [2] | further results |
| --- | --- | --- | --- |
| FGF-1: fibroblast growth factor, positive control for CD44v3 binding | In contrast to FGF-1 (Supplementary Fig. 4), NGF did not bind to CD44v3 |  |  |
| FGF-2: FGF-2 (control), binding to CD44v3 | binding to CD44v3 but not to NGF was detected |  |  |
| KSTSSNTISAG [Peptide 1, CD44v3 mimetic peptide corresponding to zone 1 [(K) […]]] |  | neither peptide 1 ([…]) nor peptide 2 ([…]) could bind TrkA |  |
| RDRHLSFSGSG [Peptide 3, CD44v3 mimetic peptide corresponding to zone 3 (…)] |  |  | effect on TrkA/CD44v3 complex formation (PLA) in MDA-MB-231 cells [3]: neither a scramble peptide (Fig. 3C) nor mimetic peptide P3 (Fig. 3D) inhibited TrkA/CD44v3 complex formation following NGF treatment; effect on TrkA/CD44v3 complex formation (PLA) in COS-7 cells [4]: did not inhibit TrkA/CD44v3 complex formation; effect on TrkA/CD44v3 complex formation (PLA) in COS-7 cells ([4]; listed as P3): did not abolish complex formation; binding to TrkA by MST (in words) ([2]; listed as P3): also bound TrkA |
| WEPNEENEDE [Peptide 2, CD44v3 mimetic peptide corresponding to zone 2 (…)] |  | neither peptide 1 (KSTSSNTISAG) nor peptide 2 (WEPNEENEDE) could bind TrkA |  |
